In brackets after ≈: the same amount, converted by molar mass. Like-named read-outs stand apart in the source and are kept apart here.
Assays:
[1] = biological target: fungal (fACC2) (UniProt Q00955); conditions: read-out: fACC2 (in vitro ACC2 Inhibition Assay, IC50), ADP-Glo, 5 nM ACC2, 20 μM ATP, 20 μM acetyl-CoA
[2] = tested on: Botrtyis cinerea (Bc); assay: Growth inhibition assay of fungal pathogens, Bc; assay type: cell-based; conditions: 48 h
In short: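 Inhibition percentages reflect 48 h OD600 and visual scores relative to a 2% DMSO control. Test concentrations were 50, 10, 2 ppm or 2, 0.4, 0.08 ppm final, applied to spores in 17% V8 medium.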

[3] = Botrtyis cinerea, growth inhibition at 48 hours vs 2% DMSO control, read-out: Concentration at 90% Inhibition Bc
[4] = Botrtyis cinerea, growth inhibition vs 2% DMSO control at 48 hours, read-out: Concentration at 90% Inhibition Bc
[5] = read-out: Concentration at 90% Inhibition Bc, Botrtyis cinerea, growth inhibition at 48 hours vs 2% DMSO control
[6] = read-out: Concentration at 90% Inhibition Bc, Botrtyis cinerea, growth inhibition vs 2% DMSO control at 48 hours

fungal (fACC2), sequence (Q00955 whole entry): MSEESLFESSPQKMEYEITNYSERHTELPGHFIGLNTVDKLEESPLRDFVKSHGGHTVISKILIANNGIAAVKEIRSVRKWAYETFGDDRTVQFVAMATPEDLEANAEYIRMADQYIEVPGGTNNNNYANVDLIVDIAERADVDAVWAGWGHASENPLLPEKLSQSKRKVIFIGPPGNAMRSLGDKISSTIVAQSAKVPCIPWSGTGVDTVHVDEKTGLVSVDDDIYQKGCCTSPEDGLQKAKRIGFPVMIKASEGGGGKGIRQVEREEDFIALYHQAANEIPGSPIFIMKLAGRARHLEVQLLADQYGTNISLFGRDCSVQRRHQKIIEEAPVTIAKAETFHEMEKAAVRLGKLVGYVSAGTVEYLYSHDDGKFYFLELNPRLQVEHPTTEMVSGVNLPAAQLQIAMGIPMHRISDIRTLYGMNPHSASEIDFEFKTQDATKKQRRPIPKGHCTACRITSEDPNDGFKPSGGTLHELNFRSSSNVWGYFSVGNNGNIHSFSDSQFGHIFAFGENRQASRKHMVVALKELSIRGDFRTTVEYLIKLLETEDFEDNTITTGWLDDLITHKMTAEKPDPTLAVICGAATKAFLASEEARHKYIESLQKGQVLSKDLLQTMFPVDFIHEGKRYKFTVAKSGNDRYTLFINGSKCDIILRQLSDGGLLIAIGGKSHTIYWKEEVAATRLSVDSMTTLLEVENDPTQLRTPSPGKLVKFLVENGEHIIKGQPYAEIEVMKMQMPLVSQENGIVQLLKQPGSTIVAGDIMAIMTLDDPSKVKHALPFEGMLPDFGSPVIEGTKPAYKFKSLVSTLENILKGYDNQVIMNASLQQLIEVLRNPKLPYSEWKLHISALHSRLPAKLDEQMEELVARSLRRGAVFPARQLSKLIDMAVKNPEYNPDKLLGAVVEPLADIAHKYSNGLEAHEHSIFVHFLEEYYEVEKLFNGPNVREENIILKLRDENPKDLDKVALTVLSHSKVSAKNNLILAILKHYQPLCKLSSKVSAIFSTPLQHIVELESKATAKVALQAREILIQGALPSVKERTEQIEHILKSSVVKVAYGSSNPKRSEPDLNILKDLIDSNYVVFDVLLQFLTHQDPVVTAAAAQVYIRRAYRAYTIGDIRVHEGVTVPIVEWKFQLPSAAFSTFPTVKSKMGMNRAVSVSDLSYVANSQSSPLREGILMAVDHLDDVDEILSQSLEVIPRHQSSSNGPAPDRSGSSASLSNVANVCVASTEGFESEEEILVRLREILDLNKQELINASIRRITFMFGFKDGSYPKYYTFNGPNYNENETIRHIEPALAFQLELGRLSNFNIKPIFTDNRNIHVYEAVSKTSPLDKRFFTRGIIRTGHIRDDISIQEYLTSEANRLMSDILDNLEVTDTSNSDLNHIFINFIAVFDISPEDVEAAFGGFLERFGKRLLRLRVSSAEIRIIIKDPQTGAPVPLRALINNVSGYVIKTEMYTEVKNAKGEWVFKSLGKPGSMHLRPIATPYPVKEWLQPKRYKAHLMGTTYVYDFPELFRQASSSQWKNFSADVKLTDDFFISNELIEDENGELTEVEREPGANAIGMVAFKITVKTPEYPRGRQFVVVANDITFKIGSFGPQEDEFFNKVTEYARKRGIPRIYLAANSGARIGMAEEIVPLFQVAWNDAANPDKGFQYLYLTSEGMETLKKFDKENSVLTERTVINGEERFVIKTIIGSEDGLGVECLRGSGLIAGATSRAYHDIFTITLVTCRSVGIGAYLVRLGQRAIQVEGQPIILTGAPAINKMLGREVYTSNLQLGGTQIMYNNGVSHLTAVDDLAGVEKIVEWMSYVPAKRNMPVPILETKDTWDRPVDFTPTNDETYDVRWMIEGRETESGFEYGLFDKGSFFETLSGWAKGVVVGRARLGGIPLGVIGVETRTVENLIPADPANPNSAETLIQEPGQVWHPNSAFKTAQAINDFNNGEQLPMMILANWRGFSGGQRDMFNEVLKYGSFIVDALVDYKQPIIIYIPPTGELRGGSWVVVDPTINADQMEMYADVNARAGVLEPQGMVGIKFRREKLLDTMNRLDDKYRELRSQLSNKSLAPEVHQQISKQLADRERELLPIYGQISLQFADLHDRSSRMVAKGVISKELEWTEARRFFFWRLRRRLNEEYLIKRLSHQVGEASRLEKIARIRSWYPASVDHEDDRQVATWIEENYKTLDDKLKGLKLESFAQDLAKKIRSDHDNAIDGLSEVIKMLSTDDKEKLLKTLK

SMILES | IC50 ([1]; Table 2a) | IC50 ([1]; Table 2b, additional results) | IC90 [2, 3] | IC90 [2, 4] | IC90 [2, 5] | IC90 [2, 6]
COCCOc1ccc(F)cc1[C@H](Cn1c(=O)n(C(C)(C)C(=O)NC(C)C)c(=O)c2c(C)c(-n3nccn3)sc21)OC(C)C [Compound I-54, (R)-2-(1-(2-(5-fluoro-2-(2-methoxyethoxy)phenyl)-2-isopropoxyethyl)-5-methyl-2,4-dioxo-6-(2H-1,2,3-triazol-2-yl)-1,4-dihydrothieno[2,3-d]pyrimidin-3(2H)-yl)-N-isopropyl-2-methylpropanamide] | 1 to 5 nM | 1 to 5 nM | 0.4 µg/mL (≈ 0.634 µM) | 0.4 µg/mL (≈ 0.634 µM) |  | 
Cc1c(-n2nccn2)sc2c1c(=O)n(C(C)(C)C(=O)NC(C)C)c(=O)n2C[C@H](OC(C)C)c1cc(F)ccc1OCC1COC1 [Compound I-55, (R)-2-(1-(2-(5-fluoro-2-(oxetan-3-ylmethoxy)phenyl)-2-isopropoxyethyl)-5-methyl-2,4-dioxo-6-(2H-1,2,3-triazol-2-yl)-1,4-dihydrothieno[2,3-d]pyrimidin-3(2H)-yl)-N-isopropyl-2-methylpropanamide] | 1 to 5 nM | 1 to 5 nM | 0.4 µg/mL (≈ 0.622 µM) | 0.4 µg/mL (≈ 0.622 µM) |  | 
Cc1c(-n2nccn2)sc2c1c(=O)n(C(C)(C)C(=O)NC(C)C)c(=O)n2C[C@H](OC(C)C)c1cc(F)ccc1OCC#N [Compound I-56, (R)-2-(1-(2-(2-(cyanomethoxy)-5-fluorophenyl)-2-isopropoxyethyl)-5-methyl-2,4-dioxo-6-(2H-1,2,3-triazol-2-yl)-1,4-dihydrothieno[2,3-d]pyrimidin-3(2H)-yl)-N-isopropyl-2-methylpropanamide] | 1 to 5 nM | 1 to 5 nM |  |  | 0.4 µg/mL (≈ 0.654 µM) | 0.4 µg/mL (≈ 0.654 µM)
COc1ccc(F)cc1[C@H](Cn1c(=O)n(C(C)(C)C(=O)N2CC=CC2)c(=O)c2c(C)c(-n3nccn3)sc21)OC1CCOCC1 [Compound I-62, (R)-3-(1-(2,5-dihydro-1H-pyrrol-1-yl)-2-methyl-1-oxopro-pan-2-yl)-1-(2-(5-fluoro-2-methoxyphenyl)-2-((tetrahydro-2H-pyran-4-yl)oxy)ethyl)-5-methyl-6-(2H-1,2,3-triazol-2-yl)thieno[2,3-d]pyrimidine-2,4(1H,3H)-dione] | 1 to 5 nM | 1 to 5 nM | 2 µg/mL (≈ 3.13 µM) | 2 µg/mL (≈ 3.13 µM) |  | 
COc1ccc(F)cc1[C@H](Cn1c(=O)n(C(C)(C)C(=O)N2CC=CC2)c(=O)c2c(C)c(-n3nccn3)sc21)OC[C@@H](C)O [Compound I-63, 3-(1-(2,5-dihydro-1H-pyrrol-1-yl)-2-methyl-1-oxopropan-2-yl)-1-((R)-2-(5-fluoro-2-methoxyphenyl)-2-((R)-2-hydroxypropoxy)ethyl)-5-methyl-6-(2H-1,2,3-triazol-2-yl)thieno[2,3-d]pyrimidine-2,4(1H,3H)-dione] | 0.4 to 1 nM | 0.3 to 1 nM | 2 µg/mL (≈ 3.26 µM) | 2 µg/mL (≈ 3.26 µM) |  | 
COCCO[C@@H](Cn1c(=O)n(C(C)C(=O)N2CCCC2)c(=O)c2c(C)c(-n3nccn3)sc21)c1cc(F)ccc1OC (stereo partly drawn) [Compound I-64, 1-((R)-2-(5-fluoro-2-methoxyphenyl)-2-(2-methoxy-ethoxy)ethyl)-5-methyl-3-(1-oxo-1-(pyrrolidin-1-yl)propan-2-yl)-6-(2H-1,2,3-triazol-2-yl)thieno[2,3-d]pyrimidine-2,4(1H,3H)-dione] | 1 to 5 nM | 1 to 5 nM | 2 µg/mL (≈ 3.33 µM) | 2 µg/mL (≈ 3.33 µM) |  | 
COCCO[C@@H](Cn1c(=O)n([C@H](C)C(=O)N2CCCC2)c(=O)c2c(C)c(-n3nccn3)sc21)c1cc(F)ccc1OC [Compound I-65, 1-((R)-2-(5-fluoro-2-methoxyphenyl)-2-(2-methoxy-ethoxy)ethyl)-5-methyl-3-((R)-1-oxo-1-(pyrrolidin-1-yl)propan-2-yl)-6-(2H-1,2,3-triazol-2-yl)thieno[2,3-d]pyrimidine-2,4(1H,3H)-dione] | 0.4 to 1 nM | 0.3 to 1 nM | 2 µg/mL (≈ 3.33 µM) | 2 µg/mL (≈ 3.33 µM) |  | 
COCCCO[C@@H](Cn1c(=O)n(C(C)(C)C(=O)N2CCCC2)c(=O)c2c(C)c(-n3nccn3)sc21)c1cc(F)ccc1OC [Compound I-68, (R)-1-(2-(5-fluoro-2-methoxyphenyl)-2-(3-methoxy-propoxy)ethyl)-5-methyl-3-(2-methyl-1-oxo-1-(pyrrolidin-1-yl)propan-2-yl)-6-(2H-1,2,3-triazol-2-yl)thieno[2,3-d]pyrimidine-2,4(1H,3H)-dione] | 1 to 5 nM | 1 to 5 nM | 2 µg/mL (≈ 3.18 µM) | 2 µg/mL (≈ 3.18 µM) |  | 
COCCCO[C@@H](Cn1c(=O)n(C(C)(C)C(=O)NC(C)C)c(=O)c2c(C)c(-n3nccn3)sc21)c1cc(F)ccc1OC [Compound I-69, (R)-2-(1-(2-(5-fluoro-2-methoxyphenyl)-2-(3-methoxy-propoxy)ethyl)-5-methyl-2,4-dioxo-6-(2H-1,2,3-triazol-2-yl)-1,4-dihydrothieno[2,3-d]pyrimidin-3(2H)-yl)-N-isopropyl-2-methylpropanamide] | 0.4 to 1 nM | 0.3 to 1 nM |  |  | 0.4 µg/mL (≈ 0.649 µM) | 0.4 µg/mL (≈ 0.649 µM)
C=CCNC(=O)C(C)(C)n1c(=O)c2c(C)c(-n3nccn3)sc2n(C[C@H](OC2CCOCC2)c2cc(F)ccc2OC)c1=O [Compound I-70, (R)—N-allyl-2-(1-(2-(5-fluoro-2-methoxyphenyl)-2-((tetrahydro-2H-pyran-4-yl)oxy)ethyl)-5-methyl-2,4-dioxo-6-(2H-1,2,3-triazol-2-yl)-1,4-dihydrothieno[2,3-d]pyrimidin-3(2H)-yl)-2-methylpropanamide] | 1 to 5 nM | 1 to 5 nM |  |  | 2 µg/mL (≈ 3.19 µM) | 2 µg/mL (≈ 3.19 µM)
C=CCN(C)C(=O)C(C)(C)n1c(=O)c2c(C)c(-n3nccn3)sc2n(C[C@H](OC2CCOCC2)c2cc(F)ccc2OC)c1=O [Compound I-71, (R)—N-allyl-2-(1-(2-(5-fluoro-2-methoxyphenyl)-2-((tetrahydro-2H-pyran-4-yl)oxy)ethyl)-5-methyl-2,4-dioxo-6-(2H-1,2,3-triazol-2-yl)-1,4-dihydrothieno[2,3-d]pyrimidin-3(2H)-yl)-N,2-dimethylpropanamide] | 1 to 5 nM | 1 to 5 nM | 0.4 µg/mL (≈ 0.624 µM) | 0.4 µg/mL (≈ 0.624 µM) |  | 
C=CCO[C@@H](Cn1c(=O)n(C(C)(C)C(=O)NC(C)C)c(=O)c2c(C)c(-n3nccn3)sc21)c1cc(F)ccc1OC [Compound I-72, (R)-2-(1-(2-(allyloxy)-2-(5-fluoro-2-methoxyphenyl)ethyl)-5-methyl-2,4-dioxo-6-(2H-1,2,3-triazol-2-yl)-1,4-dihydrothieno[2,3-d]pyrimidin-3(2H)-yl)-N-isopropyl-2-methylpropanamide] | 1 to 5 nM | 1 to 5 nM |  |  | 2 µg/mL (≈ 3.42 µM) | 2 µg/mL (≈ 3.42 µM)
COc1ccc(F)cc1[C@H](Cn1c(=O)n(C(C)(C)C(=O)NC2CC2)c(=O)c2c(C)c(-n3nccn3)sc21)OC(C)C [Compound I-73, (R)—N-cyclopropyl-2-(1-(2-(5-fluoro-2-methoxyphenyl)-2-isopropoxyethyl)-5-methyl-2,4-dioxo-6-(2H-1,2,3-triazol-2-yl)-1,4-dihydrothieno[2,3-d]pyrimidin-3(2H)-yl)-2-methylpropanamide] | 1 to 5 nM | 1 to 5 nM | 2 µg/mL (≈ 3.42 µM) | 2 µg/mL (≈ 3.42 µM) |  | 

Source: patent publication US10800791B2, “Triazole ACC inhibitors and uses thereof” (Gilead Apollo, LLC, priority 2015, dated 2020)
